# Data taken from patent publication US9199942B2, “Processes for the preparation of pesticidal compounds” (Dow AgroSciences LLC, priority 2013, dated 2015).
# Counter-ions that a name gives are not always drawn. Like-named read-outs stand apart in the source and are kept apart here.
# Columns and labels:
# [1] = system: Green Peach Aphid (Myzus persicae) (MYZUPE); experiment: Bioassay on green peach aphid (GPA), foliar spray on infested cabbage seedlings; assay type: in vivo; conditions: 72 h, read-out: MYZUPE rating (% Control of Mortality)
# Description: Example A Bioassays on Green Peach Aphid (“GPA”) (Myzus persicae) (MYZUPE.
# Several molecules disclosed herein were tested against GPA using procedures described below.
# Cabbage seedling grown in 3-in pots, with 2-3 small (3-5 cm) true leaves, were used as test substrate. The seedlings were infested with […] (wingless adult and nymph stages) one day prior to chemical application. Four posts with individual seedlings were used for each treatment. Test compounds (2 mg) were dissolved in 2 mL of acetone/methanol (1:1) solvent, forming stock solutions of 1000 ppm test compound. The stock solutions were diluted 5× with 0.025% Tween 20 in water to obtain the solution at 200 ppm test compound. A hand-held aspirator-type sprayer was used for spraying a solution to both sides of the cabbage leaves until runoff. Reference plants (solvent check) were sprayed with the diluent only containing 20% by volume acetone/methanol (1:1) solvent. Treated plants were held in a holding room for three days at approximately 25° C. and ambient relative humidity (RH) prior to grading. Evaluation was conducted by counting the number of live aphids per plant under a microscope. Percent Control was measured by using Abbott's correction formula (W. S. Abbott, “A Method of Computing the Effectiveness of an Insecticide” J. Econ. Entomol 18 (1925), pp. 265-267) as follows. Corrected % Control=100*(X−Y)/X • where • X=No. of live aphids on solvent check plants and • Y=No. of live aphids on treated plants
# The results are indicated in the table entitled “Table 1: GPA (MYZUPE) and sweetpotato whitefly-crawler (BEMITA) Rating Table”.
# [2] = system: Sweetpotato Whitefly Crawler (Bemisia tabaci) (BEMITA); experiment: Bioassay on sweetpotato whitefly crawler, foliar spray on infested cotton plants; assay type: in vivo; conditions: read-out: BEMITA rating (% Control of Mortality)
# Source text: Example B Bioassays on Sweetpotato Whitefly Crawler (Bemisia tabaci) (BEMITA.)
# Cotton plants grown in 3-inch pots, with 1 small (3-5 cm) true leaf, were used at test substrate. The plants were placed in a room with whitely adults. Adults were allowed to deposit eggs for 2-3 days. After a 2-3 day egg-laying period, plants were taken from the adult whitefly room. Adults were blown off leaves using a hand-held Devilbliss sprayer (23 psi). Plants with egg infestation (100-300 eggs per plant) were placed in a holding room for 5-6 days at 82° F. and 50% RH for egg hatch and crawler stage to develop. Four cotton plants were used for each treatment. Compounds (2 mg) were dissolved in 1 mL of acetone solvent, forming stock solutions of 2000 ppm. The stock solutions were diluted 10× with 0.025% Tween 20 in water to obtain a test solution at 200 ppm. A hand-held Devilbliss sprayer was used for spraying a solution to both sides of cotton leaf until runoff. Reference plants (solvent check) were sprayed with the diluent only. Treated plants were held in a holding room for 8-9 days at approximately 82° F. and 50% RH prior to grading. Evaluation was conducted by counting the number of live nymphs per plant under a microscope.
# [3] = 200 ppm spray on cabbage leaves, live aphids counted after three days, Abbott's correction
# [4] = 200 ppm spray on cotton leaves, live nymphs counted after 8-9 days, Abbott's correction
Compound,"mortality at 200 ppm [1, 3]","mortality at 200 ppm [2, 4]",mortality at 200 ppm [1],mortality at 200 ppm [2]
"O=C(CCCl)Nc1c[nH]nc1Cl [Compound 4a, 3-chloro-N-(-3-chloro-1H-pyrazol-4-yl) propanamide]",< 0%,0 to 80%,,
"Nc1c[nH]nc1Cl [Compound 1a, 3-chloro-1H-pyrazol-4-amine hydrochloride]",,,0 to 80%,0 to 80%
O=C(CCSCCC(F)(F)F)Nc1c[nH]nc1Cl [Compound 3.4],0 to 80%,0 to 80%,,
